The source of these data is publication PMC4995043, “A Diverse Family of Host-Defense Peptides (Piscidins) Exhibit Specialized Anti-Bacterial and Anti-Protozoal Activities in Fishes” (PLoS ONE, 2016).

Test [1] has as its system Aeromonas salmonicida. In kind it is cell-based. To be noted: 18 h. The source says:
(§1) Fish bacterial pathogens, Streptococcus iniae (stock 00–1425; isolated from rainbow trout, Oncorhynchus mykiss), Lactococcus garvieae (stock 00–1422; multiple antibiotic-resistant strain), Vibrio anguillarum (stock 91–3057; ATCC 19264), and Aeromonas salmonicida (stock 91–3053; ATCC® 7965™), and human bacterial pathogens, Enterococcus faecalis (stock 00–1403; ATCC 29212), Staphylococcus aureus (ATCC 29213), Shigella flexneri (stock 00–1402; ATCC 12022), and Escherichia coli (stock 00–1405; ATCC 25922), were cultured from frozen stocks stored in glycerol at -80°C. L. garvieae, A. salmonicida, E. faecalis, S. aureus, and S. flexneri were grown in Mueller Hinton Broth (MHB); the MHB was supplemented with 1% NaCl for L. garvieae. S. iniae, and V. anguillarum were grown in Tryptic Soy Broth (TSB) supplemented with 1.5% NaCl and E. coli was grown in Luria-Bertani Broth (LB). The fish and human pathogens were grown at 25°C and 37°C, respectively, while shaking at 200 rpm for 18 h except for S. iniae, which was grown for 48 h. The cultures were passaged at least three times each when in log phase to ensure that they had acclimated to culture.
(§2) The minimum inhibitory concentrations (MIC) and minimum bactericidal concentrations (MBC) were determined as previously described following standard methods recommended by the […] for MIC90 and MBC determinations of clinical isolates with some modifications. Overnight bacterial cultures were diluted to 80–88% transmittance in their appropriate medium. The cultures were then diluted again to 1:200 and 100 μL was pipetted into each of 3 wells in 11 columns of a 96-well plate (Corning, Inc., Tewksbury, MA), the 12th column loaded with media without bacteria as a sterility control and blank.
(§3) The synthetic piscidin peptides (piscidins 1, 4, and 7 from striped bass; piscidins 1, 5, and 6 from white bass; and piscidin 3 corresponding to both striped bass and white bass) were prepared by diluting the 4 mg/mL stocks to 2 mg/mL in 0.2% bovine serum albumin (BSA) + 0.01% acetic acid. These were then serially diluted to a concentration of 3.9 μg/mL in the same diluent. The piscidin dilutions were added to the first 10 columns of the 96-well plate containing bacteria, […] was loaded with diluent only to act as a positive growth control. The final concentrations tested were 200 μg/mL to 0.39 μg/mL. The plates were incubated with shaking at 200 rpm for 18 h, except for S. iniae, which was incubated for 48 h. Fish pathogens and human pathogens were incubated at 25°C and 37°C, respectively. […] The MIC was taken as the lowest concentration of piscidin that reduced growth when compared to the growth control by more than 50%. To determine the MBC, 20 μL of the media from the wells of the three lowest piscidin concentrations that had no visible growth of bacteria were plated onto the appropriate media plates and incubated as described above. Colonies were counted to determine whether growth was equal to or less than 0.1% of the colony forming units (CFUs) in the original inoculum. The MBC was defined as the lowest concentration of piscidin that killed at least 99.9% of the CFUs in the original inoculum.

Test [2] has as its system Enterococcus faecalis. In kind it is cell-based. To be noted: 18 h.
Description: as §1, §2, §3

In test [3] the test system is Lactococcus garvieae. In kind it is cell-based. To be noted: 18 h.
Description: as §1, §2, §3

The test system of test [4] is Shigella flexneri. In kind it is cell-based. To be noted: S. flexneri ATCC 12022; kills at least 99.9% of CFUs of original inoculum; 37°C, 18 h.
Description: as §1, §2, §3

In test [5] the test system is Staphylococcus aureus. In kind it is cell-based. To be noted: 37°C, 18 h; for MIC: S. aureus ATCC 29213, Gram +, human pathogen, MHB, OD630, growth reduced by more than 50%; for MBC: S. aureus ATCC 29213, kills at least 99.9% of CFUs of original inoculum.
Description: as §1, §2, §3

For test [6], the system named is Streptococcus iniae. In kind it is cell-based. To be noted: 48 h; for MIC: S. iniae stock 00–1425, Gram +, fish pathogen, TSB + 1.5% NaCl, OD630, MIC = lowest concentration reducing growth by more than 50%, 3 wells, 200 to 0.39 μg/mL tested.
Description: as §1, §2, §3

Test [7] deals with Vibrio anguillarum. The test is classed as cell-based. To be noted: 18 h.
Description: as §1, §2, §3

The subject of test [8] is E. coli. The test is classed as cell-based, Escherichia coli. To be noted: 18 h.
Description: as §1, §2, §3

Test [9] relates to Tetrahymena pyriformis. To be noted: piscidin 1 not among peptides tested, previously observed results, cited from earlier work; for PC100 (100% parasiticidal concentration): lowest concentration that killed all T. pyriformis. The text has this:
Table 4 Minimum parasiticidal concentrations (PCmin) and 100% parasiticidal concentrations (PC100) of various synthetic hybrid striped bass piscidins against the ciliated protozoan, Tetrahymena pyriformis. | column: PCmin (uM) / SB P1; PC100 (uM) / SB P1; PC100 (uM) / WB P1

[10] abbreviates: E. faecalis ATCC 29212, kills at least 99.9% of CFUs of original inoculum, 37°C.
[11] abbreviates: L. garvieae stock 00–1422, kills at least 99.9% of CFUs of original inoculum, 25°C.
Where [12] appears, read: S. iniae stock 00–1425, lowest concentration killing at least 99.9% of CFUs of original inoculum, plated from MIC wells, 25°C.

Values after ≈ are worked out from the molar mass of the structure shown. Like-named read-outs stand apart in the source and are kept apart here. Where a SMILES comes first, the peptide text is derived from it.

As for `CC[C@H](C)[C@H](NC(=O)CNC(=O)[C@H](CCCNC(=N)N)NC(=O)[C@H](Cc1ccccc1)NC(=O)[C@@H](NC(=O)[C@H](Cc1c[nH]cn1)NC(=O)[C@H](Cc1c[nH]cn1)NC(=O)[C@H](Cc1ccccc1)NC(=O)[C@@H](N)Cc1ccccc1)[C@@H](C)CC)C(=O)N[C@H](C(=O)N[C@@H](Cc1c[nH]cn1)C(=O)N[C@H](C(=O)NCC(=O)N[C@@H](CCCCN)C(=O)N[C@H](C(=O)N[C@H](C(=O)N[C@@H](Cc1c[nH]cn1)C(=O)N[C@@H](CCCNC(=N)N)C(=O)N[C@@H](CC(C)C)C(=O)N[C@H](C(=O)N[C@H](C(=O)NCC(=O)O)[C@@H](C)O)C(C)C)[C@@H](C)CC)[C@@H](C)O)C(C)C)C(C)C` [SB P1] (H-FFHHIFRGIVHVGKTIHRLVTG-OH), the MIC in test [1] (A. salmonicida ATCC 7965, Gram -, fish pathogen, MHB, 25°C, OD630, growth reduced by more than 50%) is more than 77.76 µM; in test [2] (E. faecalis ATCC 29212, Gram +, human pathogen, MHB, 37°C, OD630, growth reduced by more than 50%), 1.22 µM (≈ 3.14 µg/mL); in [3] (L. garvieae stock 00–1422 (multiple antibiotic-resistant), Gram +, fish pathogen, MHB + 1% NaCl, 25°C, OD630, growth reduced by more than 50%) it was 1.22 µM; in test [5], 2.43 µM (≈ 6.25 µg/mL); in test [6] (25°C), 1.22 µM; in test [7] (V. anguillarum ATCC 19264, Gram -, fish pathogen, TSB + 1.5% NaCl, 25°C, OD630, growth reduced by more than 50%), 2.43 to 4.86 µM. In addition, the MIC in test [8] (E. coli ATCC 25922, Gram -, human pathogen, LB, 37°C, OD630, growth reduced by more than 50%) was 4.86 µM (≈ 12.5 µg/mL). Moreover, the MBC is 2.43 µM (≈ 6.25 µg/mL) in [2] (setting [10]); 1.22 µM (≈ 3.14 µg/mL) in test [3] (setting [11]); 4.86 µM (≈ 12.5 µg/mL) in test [4]; 2.43 µM (≈ 6.25 µg/mL) in test [5]; 1.22 µM (≈ 3.14 µg/mL) in [6] (setting [12]); 9.72 µM (≈ 25 µg/mL) in [7] (V. anguillarum ATCC 19264, kills at least 99.9% of CFUs of original inoculum, 25°C). Also, the “PC100 (100% parasiticidal concentration)” value in [9] is 5 µM. For the same molecule, the “PCmin (minimum parasiticidal concentration)” value in test [9] (lowest concentration that killed at least one T. pyriformis) is 2.5 µM.

As to `CC[C@H](C)[C@H](NC(=O)CNC(=O)[C@H](CCCNC(=N)N)NC(=O)[C@H](Cc1ccccc1)NC(=O)[C@@H](NC(=O)[C@H](Cc1c[nH]cn1)NC(=O)[C@H](Cc1c[nH]cn1)NC(=O)[C@@H](NC(=O)[C@@H](N)Cc1ccccc1)[C@@H](C)CC)[C@@H](C)CC)C(=O)N[C@H](C(=O)N[C@@H](Cc1c[nH]cn1)C(=O)N[C@@H](C)C(=O)NCC(=O)N[C@@H](CCCNC(=N)N)C(=O)N[C@@H](CO)C(=O)N[C@H](C(=O)NCC(=O)N[C@@H](CCCNC(=N)N)C(=O)N[C@@H](Cc1ccccc1)C(=O)N[C@@H](CC(C)C)C(=O)N[C@H](C(=O)NCC(=O)O)[C@@H](C)O)[C@@H](C)CC)C(C)C` [SB/WB P3] (H-FIHHIFRGIVHAGRSIGRFLTG-OH; N-terminus and C-terminus assumed), the MBC in test [1] is more than 80.26 µM; in [2], 10.03 µM (≈ 25 µg/mL); in [3], 5.02 µM (≈ 12.5 µg/mL); in test [6], 2.51 µM (≈ 6.25 µg/mL); in [7], 20.06 µM (≈ 50 µg/mL); in test [8] it was 80.26 µM (≈ 200 µg/mL). The results for the MIC in [1], in test [2] and in [8] were more than 80.26 µM, 1.26 µM (≈ 3.14 µg/mL) and 80.26 µM (≈ 200 µg/mL), respectively.

Take `CC[C@H](C)[C@H](NC(=O)CNC(=O)[C@H](CCCNC(=N)N)NC(=O)[C@H](Cc1ccccc1)NC(=O)[C@@H](NC(=O)[C@H](Cc1c[nH]cn1)NC(=O)[C@H](Cc1c[nH]cn1)NC(=O)[C@H](Cc1ccccc1)NC(=O)[C@@H](N)Cc1ccccc1)[C@@H](C)CC)C(=O)N[C@H](C(=O)N[C@@H](Cc1c[nH]cn1)C(=O)N[C@H](C(=O)NCC(=O)N[C@@H](CCCCN)C(=O)N[C@H](C(=O)N[C@H](C(=O)N[C@@H](Cc1c[nH]cn1)C(=O)N[C@@H](CCCCN)C(=O)N[C@@H](CC(C)C)C(=O)N[C@H](C(=O)N[C@H](C(=O)NCC(=O)O)[C@@H](C)O)C(C)C)[C@@H](C)CC)[C@@H](C)O)C(C)C)C(C)C` [WB P1] (H-FFHHIFRGIVHVGKTIHKLVTG-OH; N-terminus and C-terminus assumed): the MBC in test [1] is more than 78.61 µM; in [2] (setting [10]) it was 2.46 µM (≈ 6.26 µg/mL); in [3] (setting [11]) it was 2.46 µM (≈ 6.26 µg/mL); in test [5] it was 2.46 µM (≈ 6.26 µg/mL); in [6] (setting [12]) it was 2.46 µM (≈ 6.26 µg/mL); in test [7], 9.83 µM (≈ 25 µg/mL). This molecule gave an MBC in [8] of more than 78.61 µM. Moreover, the MIC was more than 78.61 µM in test [1]; 1.23 µM (≈ 3.13 µg/mL) in [2]; 2.46 µM (≈ 6.26 µg/mL) in test [5]; 2.46 µM in test [6] (25°C); 4.91 µM (≈ 12.5 µg/mL) in [8]. Besides, the “PC100 (100% parasiticidal concentration)” value in test [9] was 2.48 µM.

The MIC is the lowest concentration found to suppress growth. For orientation: MBC means the smallest concentration meeting the test's criterion for killing.
